# Read-outs that look alike come from different tables or passages of the source.
# System: Strain DH5α transformed with pRL663 or a pRL663 derivative
substance,measurement,setting,value
Microcin J25 [MccJ25],increase in MBC,18 of 22 MccJ25-resistant mutants from random mutagenesis,≥ 50 fold
same,increase in MBC,all 22 MccJ25-resistant mutants from random mutagenesis,≥ 5 fold
same,MBC,"no substitution (wild-type β′), 2 h at 37° C.",0 µg/mL
same,MBC,"rpoB 543 Ala→Leu, 549 Asp→Tyr, multiple-substitution mutant",50 µg/mL
same,MBC,"rpoB 543 Ala→Pro, 546 Glu→Gly, multiple-substitution mutant",50 µg/mL
same,MBC,"rpoB 544 Gly→Asp, saturation mutagenesis",50 µg/mL
same,MBC,"rpoB 545 Phe→Leu, 546 Glu→Asp, multiple-substitution mutant",50 µg/mL
same,MBC,"rpoB 545 Phe→Ser, saturation mutagenesis",50 µg/mL
same,MBC,"rpoB 548 Arg→Gln, saturation mutagenesis",50 µg/mL
same,MBC,"rpoB 549 Asp→His, saturation mutagenesis",50 µg/mL
same,MBC,"rpoC 428 Thr→Asn, saturation mutagenesis",500 µg/mL
same,MBC,"rpoC 428 Thr→Ile, saturation mutagenesis",500 µg/mL
same,MBC,"rpoC 429 Leu→Gln, saturation mutagenesis",500 µg/mL
same,MBC,"rpoC 430 His→Tyr, saturation mutagenesis",500 µg/mL
same,MBC,"rpoC 493 Pro→Thr, 498 Pro→Thr, multiple-substitution mutant",100 µg/mL
same,MBC,"rpoC 498 Pro→Gln, saturation mutagenesis",1000 µg/mL
same,MBC,"rpoC 498 Pro→Leu, saturation mutagenesis",1000 µg/mL
same,MBC,"rpoC 503 Ser→Pro, saturation mutagenesis",500 µg/mL
same,MBC,"rpoC 503 Ser→Tyr, saturation mutagenesis",500 µg/mL
same,MBC,"rpoC 504 Gln→Arg, saturation mutagenesis",500 µg/mL
same,MBC,"rpoC 504 Gln→Glu, saturation mutagenesis",500 µg/mL
same,MBC,"rpoC 508 Leu→Val, saturation mutagenesis",50 µg/mL
same,MBC,"rpoC 680 Asn→Lys, saturation mutagenesis",500 µg/mL
same,MBC,"rpoC 684 Asp→Ala, saturation mutagenesis",1000 µg/mL
same,MBC,"rpoC 684 Asp→Glu, saturation mutagenesis",500 µg/mL
same,MBC,"rpoC 684 Asp→Tyr, saturation mutagenesis",500 µg/mL
same,MBC,"rpoC 684 Asp→Val, saturation mutagenesis",500 µg/mL
same,MBC,"rpoC 732 Gly→Asp, saturation mutagenesis",100 µg/mL
same,MBC,"rpoC 732 Gly→Asp, 733 Ser→Ala, multiple-substitution mutant",100 µg/mL
same,MBC,"rpoC 732 Gly→Asp, Gly→Thr, multiple-substitution mutant",500 µg/mL
same,MBC,"rpoC 733 Ser→Phe, saturation mutagenesis",100 µg/mL
same,MBC,"rpoC 733 Ser→Tyr, saturation mutagenesis",100 µg/mL
same,MBC,"rpoC 733 Ser→Val, saturation mutagenesis",500 µg/mL
same,MBC,"rpoC 733 Ser→Val, 734 Ala→Gly, multiple-substitution mutant",100 µg/mL
same,MBC,"rpoC 735 Ala→Δ, saturation mutagenesis",1000 µg/mL
same,MBC,"rpoC 736 Gln→Pro, saturation mutagenesis",500 µg/mL
same,MBC,"rpoC 738 Arg→Leu, saturation mutagenesis",50 µg/mL
same,MBC,"rpoC 744 Arg→His, saturation mutagenesis",50 µg/mL
same,MBC,"rpoC 744 Arg→Pro, saturation mutagenesis",50 µg/mL
same,MBC,"rpoC 748 Ala→Pro, saturation mutagenesis",100 µg/mL
same,MBC,"rpoC 775 Ser→Cys, saturation mutagenesis",500 µg/mL
same,MBC,"rpoC 776 Thr→Ile, saturation mutagenesis",500 µg/mL
same,MBC,"rpoC 777 His→Pro, saturation mutagenesis",500 µg/mL
same,MBC,"rpoC 777 His→Ser, 778 Gly→Ala, multiple-substitution mutant",500 µg/mL
same,MBC,"rpoC 777 His→Tyr, saturation mutagenesis",1000 µg/mL
same,MBC,"rpoC 779 Ala→Gly, saturation mutagenesis",500 µg/mL
same,MBC,"rpoC 779 Ala→Pro, saturation mutagenesis",500 µg/mL
same,MBC,"rpoC 779 Ala→Thr, saturation mutagenesis",1000 µg/mL
same,MBC,"rpoC 780 Arg→Cys, saturation mutagenesis",1000 µg/mL
same,MBC,"rpoC 782 Gly→Ala, saturation mutagenesis",1000 µg/mL
same,MBC,"rpoC 783 Leu→Pro, saturation mutagenesis",100 µg/mL
same,MBC,"rpoC 784 Ala→Glu, saturation mutagenesis",500 µg/mL
same,MBC,"rpoC 785 Asp→Gly, saturation mutagenesis",500 µg/mL
same,MBC,"rpoC 786 Thr→Ala, saturation mutagenesis",500 µg/mL
same,MBC,"rpoC 786 Thr→Ile, saturation mutagenesis",500 µg/mL
same,MBC,"rpoC 788 Leu→Met, saturation mutagenesis",1000 µg/mL
same,MBC,"rpoC 789 Lys→Arg, saturation mutagenesis",500 µg/mL
same,MBC,"rpoC 789 Lys→Asn, saturation mutagenesis",1000 µg/mL
same,MBC,"rpoC 789 Lys→Gln, saturation mutagenesis",1000 µg/mL
same,MBC,"rpoC 790 Thr→Ala, saturation mutagenesis",1000 µg/mL
same,MBC,"rpoC 790 Thr→Asn, saturation mutagenesis",500 µg/mL
same,MBC,"rpoC 790 Thr→Ile, saturation mutagenesis",1000 µg/mL
same,MBC,"rpoC 790 Thr→Ser, saturation mutagenesis",500 µg/mL
same,MBC,"rpoC 922 Cys→Tyr, saturation mutagenesis",500 µg/mL
same,MBC,"rpoC 926 Pro→Ser, saturation mutagenesis",500 µg/mL
same,MBC,"rpoC 927 Gly→Cys, saturation mutagenesis",1000 µg/mL
same,MBC,"rpoC 927 Gly→Ser, saturation mutagenesis",1000 µg/mL
same,MBC,"rpoC 930 Leu→Met, saturation mutagenesis",1000 µg/mL
same,MBC,"rpoC 931 Thr→Ala, saturation mutagenesis",1000 µg/mL
same,MBC,"rpoC 931 Thr→Ile, saturation mutagenesis",1000 µg/mL
same,MBC,"rpoC 932 Met→Ile, saturation mutagenesis",1000 µg/mL
same,MBC,"rpoC 933 Arg→Cys, saturation mutagenesis",1000 µg/mL
same,MBC,"rpoC 1136 Gly→Ala, saturation mutagenesis",500 µg/mL
same,MBC,"rpoC 1136 Gly→Cys, saturation mutagenesis",1000 µg/mL
same,MBC,"rpoC 1137 Gly→Ala, saturation mutagenesis",500 µg/mL
same,MBC,"rpoC 1137 Gly→Arg, saturation mutagenesis",1000 µg/mL
same,MBC,"rpoC 1240 Val→Glu, saturation mutagenesis",500 µg/mL
same,MBC,"rpoC 1241 Tyr→Cys, saturation mutagenesis",100 µg/mL
same,MBC,"rpoC 1241 Tyr→His, saturation mutagenesis",100 µg/mL
same,MBC,"rpoC 1241 Tyr→Ser, saturation mutagenesis",100 µg/mL
same,MBC,"rpoC 1244 Gln→Glu, saturation mutagenesis",100 µg/mL
same,MBC,"rpoC 1244 Gln→Leu, saturation mutagenesis",500 µg/mL
same,MBC,"rpoC 1244 Gln→Pro, saturation mutagenesis",100 µg/mL
same,MBC,"rpoC 1247 Lys→Gln, saturation mutagenesis",100 µg/mL
same,MBC,"rpoC 1247 Lys→Glu, saturation mutagenesis",100 µg/mL
same,MBC,"rpoC 1248 Ile→Ser, saturation mutagenesis",100 µg/mL
same,MBC,"β′ 424 Asn→Ser, random mutagenesis, single mutant constructed using site-directed mutagenesis",100 µg/mL
same,MBC,"β′ 428 Thr→Ile, random mutagenesis",500 µg/mL
same,MBC,"β′ 430 His→Leu, random mutagenesis",500 µg/mL
same,MBC,"β′ 464 Asp→Gly, random mutagenesis",0 µg/mL
same,MBC,"β′ 469 His→Arg, random mutagenesis",0 µg/mL
same,MBC,"β′ 504 Gln→Arg, random mutagenesis",500 µg/mL
same,MBC,"β′ 733 Ser→Phe, random mutagenesis",500 µg/mL
same,MBC,"β′ 738 Arg→Leu, random mutagenesis",0 µg/mL
same,MBC,"β′ 776 Thr→Ile, random mutagenesis",500 µg/mL
same,MBC,"β′ 779 Ala→Thr, random mutagenesis",1000 µg/mL
same,MBC,"β′ 780 Arg→Cys, random mutagenesis",1000 µg/mL
same,MBC,"β′ 782 Gly→Ala, random mutagenesis",1000 µg/mL
same,MBC,"β′ 785 Asp→Gly, random mutagenesis",500 µg/mL
same,MBC,"β′ 786 Thr→Ile, random mutagenesis",500 µg/mL
same,MBC,"β′ 789 Lys→Arg, random mutagenesis",500 µg/mL
same,MBC,"β′ 789 Lys→Gln, random mutagenesis",1000 µg/mL
same,MBC,"β′ 869 Cys→Arg, random mutagenesis",1000 µg/mL
same,MBC,"β′ 933 Arg→Cys, random mutagenesis",1000 µg/mL
same,MBC,"β′ 1244 Gln→Leu, random mutagenesis",500 µg/mL

# — patent US20070196886A1 (priority 2004, published 2007)
